Source: ChEMBL document CHEMBL4138296, “Nonacidic Chemotype Possessing N-Acylated Piperidine Moiety as Potent Farnesoid X Receptor (FXR) Antagonists” (ACS Med Chem Lett, 2018)
Activity calls are given as the source filed them. The rule behind the calls is not given here.

How the values were obtained:
[1] = target: T1, Peroxisome proliferator-activated receptor gamma (Homo sapiens) (UniProt P37231); assay: Agonist activity at PPARgamma (unknown origin) at 1 uM by luciferase reporter gene assay
T1 sequence (whole entry): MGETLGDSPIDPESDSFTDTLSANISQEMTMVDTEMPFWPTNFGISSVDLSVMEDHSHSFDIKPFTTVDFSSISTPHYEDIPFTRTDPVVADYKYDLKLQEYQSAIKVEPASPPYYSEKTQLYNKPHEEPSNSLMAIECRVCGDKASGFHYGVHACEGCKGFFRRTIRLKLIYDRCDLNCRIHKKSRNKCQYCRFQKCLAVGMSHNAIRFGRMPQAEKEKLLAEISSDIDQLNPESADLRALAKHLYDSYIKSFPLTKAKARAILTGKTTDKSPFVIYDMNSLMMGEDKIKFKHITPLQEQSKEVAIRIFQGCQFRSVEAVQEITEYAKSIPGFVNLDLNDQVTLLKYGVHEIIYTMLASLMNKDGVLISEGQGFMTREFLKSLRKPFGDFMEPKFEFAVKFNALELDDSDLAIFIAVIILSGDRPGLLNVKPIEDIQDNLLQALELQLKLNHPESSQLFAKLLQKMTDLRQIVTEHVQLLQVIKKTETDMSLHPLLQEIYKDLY

[2] = system: 3T3-L1; assay: Antiadipogenic activity in mouse 3T3L1 cells assessed as inhibition of CDCA-induced triglyceride accumulation after 6 days; type: functional, cell-based
[3] = target: T2, Retinoic acid receptor RXR-alpha (Homo sapiens) (UniProt P19793); assay: Antagonist activity at human RXRalpha expressed in HEK293T cells assessed as inhibition of 9-cis-retinoic acid-induced response at 1 uM after 24 hrs by luciferase reporter gene assay; type: cell-based
T2 sequence (whole entry): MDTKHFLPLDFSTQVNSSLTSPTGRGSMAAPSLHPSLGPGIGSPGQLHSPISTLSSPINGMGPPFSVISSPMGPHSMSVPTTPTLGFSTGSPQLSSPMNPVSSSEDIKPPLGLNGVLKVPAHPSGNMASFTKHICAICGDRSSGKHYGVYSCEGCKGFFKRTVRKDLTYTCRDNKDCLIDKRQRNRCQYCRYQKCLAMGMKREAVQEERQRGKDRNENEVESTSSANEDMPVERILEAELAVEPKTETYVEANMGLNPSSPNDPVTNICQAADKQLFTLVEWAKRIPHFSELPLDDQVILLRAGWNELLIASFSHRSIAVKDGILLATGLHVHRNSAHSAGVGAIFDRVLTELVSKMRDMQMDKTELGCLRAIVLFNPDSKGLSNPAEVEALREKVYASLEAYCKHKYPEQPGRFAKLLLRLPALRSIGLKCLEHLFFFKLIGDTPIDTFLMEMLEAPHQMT

Activity [1]: inactive | inhibition [3]: inactive
SMILES: Cc1ccc2nc([C@H](CC3CCN(C(=O)C(C)C)CC3)N3C(=O)CN(c4ccc(Oc5ccccc5)cc4)C3=O)n(C)c2c1
inhibition [2]: Dose-dependent effect
